Measurements as given in patent US11851449B2, “Heterocyclic amide compounds having an RORvt inhibitory action” (TAKEDA PHARMACEUTICAL COMPANY LIMITED, priority 2013, dated 2023).
Like-named read-outs stand apart in the source and are kept apart here.

How the values were obtained:
[1] = system: IL-17A gene expression; experiment: Effect on IL-23-induced IL-17A gene expression in mice; format: in vivo; conditions: Balb/c mice, ear tissue 24 hr after intradermal IL-23; 100 mg/kg orally 30 min before and 8 hr after IL-23; versus the negative control group
Procedure: Effect on IL-23-Induced IL-17A Gene Expression in Mice
A mouse IL-23 solution (500 ng/10 μL, prepared by Takeda Pharmaceutical Company Limited) or PBS (10 μL, negative control group) was administered intradermally in the ear of Balb/c mice (Charles River Japan, male, 7 weeks old). Twenty-four hr after administration, the ear was resected under isoflurane anesthesia. The test compound was suspended in 0.5% methylcellulose and administered orally 30 min before and 8 hr after IL-23 administration.
RNA extraction from the ear tissue and quantitative PCR were performed as follows. Specifically, ear tissue 5 mm in diameter was punched from an area of the resected ear centering on the IL-23 injection site, and the tissue was immersed in RNAlater (QIAGEN) for at least 18 hr. The RNAlater-treated ear tissue was homogenized in 350 μL of RLT buffer (RNeasy mini kit, QIAGEN) and treated (55° C., 10 min) with Proteinase K (QIAGEN). Total RNA was then extracted according to the RNeasy mini kit protocol. The RNA thus obtained was then reverse transcribed into cDNA using the High-Capacity RNA-to-cDNA kit (Applied Biosystems), and the amount of each cytokine expressions was measured by real-time PCR (Viia7™, Applied Biosystems). The PCR buffer used was TaqMan Fast Advanced Master Mix (Applied Biosystems), and TaqMan Gene Expression Assays (Applied Biosystems) Mm00439618 m1 (IL-17A) and 4352341E (β-actin) were used for cytokine gene detection. The IL-17A gene expression level was normalized to the β-actin gene expression level, and the percent inhibition of IL-17A gene expression with the test compound was then calculated.
The results obtained with the above-described method (percent inhibition of IL-17A gene expression with oral administration of the test compound) are shown in Table 3.

[2] = biological target: T1, RORγt (Homo sapiens, UniProt P51449); experiment: Jurkat reporter test (human IL-17 ROR response element luciferase reporter); format: cell-based; conditions: read-out: luminescence level inhibitory rate (%) at test compound 3 μM
T1 sequence (P51449 1-497 isoform P51449-2): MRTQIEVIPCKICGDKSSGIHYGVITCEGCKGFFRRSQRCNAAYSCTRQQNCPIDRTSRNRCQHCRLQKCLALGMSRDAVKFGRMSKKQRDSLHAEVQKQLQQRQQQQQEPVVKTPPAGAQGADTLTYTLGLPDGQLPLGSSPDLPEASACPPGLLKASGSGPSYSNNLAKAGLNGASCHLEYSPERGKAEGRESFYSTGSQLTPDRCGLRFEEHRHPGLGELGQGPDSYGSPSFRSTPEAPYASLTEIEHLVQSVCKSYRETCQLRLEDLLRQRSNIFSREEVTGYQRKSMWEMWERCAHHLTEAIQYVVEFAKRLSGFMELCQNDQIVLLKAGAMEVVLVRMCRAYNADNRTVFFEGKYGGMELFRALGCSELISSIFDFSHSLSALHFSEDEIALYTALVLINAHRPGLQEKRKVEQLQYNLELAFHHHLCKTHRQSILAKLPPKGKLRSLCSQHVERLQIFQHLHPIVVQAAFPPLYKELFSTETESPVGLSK
In short: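 Jurkat cells were electroporated (1350 V, 10 ms, 3 pulses) with reporter constructs, then cultured overnight with compound in RPMI containing 10% lipid-reduced FCS, 10 mM HEPES pH 7.5 and 5 μM lovastatin. Luciferase was quantified by Bright-Glo luminescence after 10 min at room temperature.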

[3] = biological target: T1, RORγt; experiment: Cofactor recruitment test (Alpha Screen, biotinylated SRC-1 peptide); format: biochemical; conditions: read-out: signal value inhibitory rate (%) at test compound 1 μM
Procedure: Cofactor Recruitment Test
Cofactor recruitment test was performed by Alpha Screen (Histidine Detection Kit, PerkinElmer) method. First, a test compound was diluted with an assay buffer (50 mM Tris-HCl (pH 7.5), 50 mM KCl, 1 mM DTT, 0.1% BSA) and added to a 384 well plate by 5 μL. […] The mixture was stood in a dark place for 1 hr, and the signal value was measured by Envision (PerkinElmer).

[4] = biological target: T1, RORγt; experiment: RORγt binding test (TR-FRET, fluorescent-labeled cholesterol); conditions: read-out: binding inhibitory rate (%) of fluorescent-labeled cholesterol to RORγt at test compound 1 μM
In short: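 His-tagged RORγt and BODIPY-cholesterol were incubated with compound for 20 min at room temperature in Tris-HCl pH 7.5, 100 mM NaCl, 1 mM DTT and 0.1% BSA. Terbium anti-His antibody was then added for a further 20 min.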

[5] = system: mouse model of IL-23-induced psoriasis; experiment: Effect in a mouse model of IL-23-induced psoriasis; format: in vivo; conditions: Balb/c mice, 100 mg/kg orally twice daily, versus the negative control group
Procedure: Effect in a Mouse Model of IL-23-Induced Psoriasis
Mouse IL-23 (500 ng/15 μL, R&D) or PBS (15 μL, negative control group) was administered intradermally in the ear of Balb/c mice (Charles River Japan, male, 7 weeks old) 5 times every other days. Seven hr after IL-23 administration at 8 days after the initial administration (final administration), the mice were anesthetized with isoflurane, and ear thickness was measured with calipers. After the ear thickness was measured, the ear was resected, the tissue 8 mm in diameter was punched from an area centering on the IL-23 injection site, and the tissue was weighed. […]
The change in ear thickness in this model was evaluated by calculating the difference in measured thickness between before IL-23 administration and 7 hr after the final IL-23 administration.
The amount of IL-17 in the ear tissue was performed as follows. […] The homogenized solution was centrifuged, and the amount of IL-17 in the supernatant was measured using ELISA kit (R&D), and the amount of protein in the supernatant was measured using pierce BCA protein assay kit (Thermo scientific). The amount of IL-17 in each ear tissue was normalized to the amount of protein, and the percent inhibition of IL-17A production with the test compound was then calculated. […]

inhibition at 3 µM ([2]; test compound 3 μM, Jurkat cells) | SMILES | percent inhibition of IL-17A gene expression [1] | inhibition at 3 µM ([2]; Jurkat) | inhibition at 1 µM [3] | inhibition at 1 µM [4] | percent inhibition of ear thickness ([5]; IL-23 intradermally in the ear 5 times every other day) | percent inhibition of IL-17 production ([5]; ear tissue, ELISA normalized to protein)
– | COc1ccc([C@H](C(=O)Nc2ccc([Si](C)(C)C)cc2)N(C)C(=O)c2cc(O)no2)cc1 [Example 14, 3-hydroxy-N-((1R)-1-(4-methoxyphenyl)-2-oxo-2-((4-(trimethylsilyl)phenyl)amino)ethyl)-N-methyl-1,2-oxazole-5-carboxamide] | 53% | – | – | – | – | –
– | COc1ccc([C@H](C(=O)Nc2cc(F)c([Si](C)(C)C)c(F)c2)N(C)C(=O)c2cc(O)no2)cc1 [Example 23, N-((1R)-2-((3,5-difluoro-4-(trimethylsilyl)phenyl)amino)-1-(4-methoxyphenyl)-2-oxoethyl)-3-hydroxy-N-methyl-1,2-oxazole-5-carboxamide] | 71% | – | – | – | – | –
– | COc1ccc([C@H](C(=O)Nc2ccc([Si](C)(C)C)c(F)c2)N(C)C(=O)c2cc(O)no2)cc1 [Example 24, N-((1R)-2-((3-fluoro-4-(trimethylsilyl)phenyl)amino)-1-(4-methoxyphenyl)-2-oxoethyl)-3-hydroxy-N-methyl-1,2-oxazole-5-carboxamide] | 65% | 100% | 95.3% | 102% | 76% | 96%
99.8% | COCc1ccc([C@@H](NC(=O)Cc2cc(O)no2)C(=O)Nc2ccc(C(C)(C)C)c(F)c2)cc1 [Example 106, (2R)—N-(4-tert-butyl-3-fluorophenyl)-2-(((3-hydroxy-1,2-oxazol-5-yl)acetyl)amino)-2-(4-(methoxymethyl)phenyl)acetamide] | 43% | – | 88% | 103% | – | –
